# Results from PMC7746742, “The novel rexinoid MSU-42011 is effective for the treatment of preclinical Kras-driven lung cancer” (Scientific Reports, 2020).
# Key:
# [1] = Mouse weights as a marker of drug toxicity; assay type: in vivo, A/J mice; details: rexinoids in diet; initial week 6, final week 20
# Excerpt: Mouse weights were monitored as a marker of drug toxicity (Supplemental Fig. 3). […] There were no significant differences in the average weights between groups of mice on single drugs.
# Control Bexarotene 42011 C/P Bex + C/P 42011 + C/P
# Initial weight Final weight
# Supplemental Fig 3: Mouse weights. A/J mice were weighed weekly during the study. Values shown represent average mouse weights (n = 14-15/group) before treatment diets (initial weight at week 6) and at the end of the study (final weight at week 20). * p < 0.01 compared to control, # p < 0.01 compared to bexarotene, ! p < 0.05 compared to MSU-42011 (one-way ANOVA followed by Tukey HSD); ** p < 0.05, *** p < 0.01 (two-tailed t test).
# SREBP [2] = assay: SREBP mRNA expression assay in HepG2 cells (RT-PCR); assay type: cell-based, human; details: Homo sapiens, HepG2, 8 h, HepG2 cells, 300 nM rexinoids, 8 h, SREBP mRNA by RT-PCR; mean ± SD of 3 experiments; read-out: SREBP activation Fold induction vs. Control
# Procedure: The goals of our structure–activity relationship (SAR) studies were to explore and discover new scaffolds that not only bind to RXR but also are able to independently modulate both iNOS and SREBP activity in accordance with a previously described screening paradigm. To characterize the effect of the novel rexinoids on SREBP elevation in vitro, HepG2 cells were treated with 300 nM rexinoids for 8 h and SREBP mRNA levels were measured by RT-PCR. SREBP expression ranged from no change to a 4.6-fold induction compared to the vehicle control when treated with the novel compounds. […] Analogs MSU- 41402, 41582, 41407, 41566, 41844, 41845, 42011, and 42166 induced an SREPB mRNA fold expression change of 1–1.5 normalized to a vehicle control, while bexarotene induced an mRNA fold expression change of > 2 (Table 1).
# (§1) HepG2 were plated in 6-well plates (1 × 10^6 cells/well) and, after allowing the cells to attach overnight, were treated with 300 nM rexinoids and/or varying concentrations of T0901317 (TOCRIS # 2373), GSK 2033 (TOCRIS # 5694), HX 531 (TOCRIS # 3912) for 8 h. Total RNA was isolated with TRIzol (Invitrogen, Carlsbad, CA) and 2 µg RNA was used to synthesize cDNA using the SuperScript III reverse transcriptase kit (Invitrogen, Carlsbad, CA). Primers (IDT) for SREBP (F: 5′-GCCGGTTGATAGGCAGCTT-3′; R: 5′-GGTGAGTGGCGGAACCATT-3′) and GAPDH (F: 5′-[…]-3′; R: 5′-[…]-3′), the SYBR Green Supermix (Bio-rad Laboratories, Hercules, CA) and the QuantStudio 7 Flex Real-Time PCR system (95 °C for 20 s followed by 40 cycles of 95 °C for 15 s and 60 °C for 1 min were used to detect mRNA expression. Relative SREBP/GAPDH gene expression was calculated by the delta-delta Ct method. To evaluate protein expression by western blotting, HepG2 cells were plated as above and treated with 300 nM of rexinoids for 24 h. Cells were harvested and lysed in RIPA buffer (1 M Tris–Cl, 5 M NaCl, pH 7.4, 0.5 M EDTA, 25 mM sodium deoxycholate, 1% triton-X, 0.1% SDS, 0.0125% aprotinin) with protease inhibitors (1% PMSF/0.5% apoprotein/0.1%leupeptin). Protein concentration was measured using a BCA assay (Sigma-Aldrich). Proteins (10 µg/well) were separated in 10% SDS-PAGE gels and transferred to nitrocellulose membranes. Membranes were incubated with SREBP (Active Motif; 1:1000) and GAPDH (Santa Cruz Biotechnology; 1:8000) primary antibodies followed by anti-rabbit secondary antibodies conjugated to horseradish peroxidase (Cell Signaling). Signal was detected using the ECL Western Blotting Substrate (GE Healthcare), and protein levels quantified using ImageJ.
# SREBP [3] = assay: SREBP protein expression in HepG2 cells (western blot); assay type: cell-based, human; details: 300 nM rexinoids, 24 h
# Procedure: Although we have confirmed that the iNOS assay correlates with in vivo efficacy, few investigators have used the induction of SREBP in vitro as a biomarker to predict the ability of novel rexinoids to increase triglycerides in vivo. Elevated triglycerides are a side-effect found with many RXR agonists in preclinical models and by bexarotene in humans[13],[14]. […] HepG2 human liver cells were used, as the liver is the major organ that regulates lipid homeostasis.
# as §1
smiles,measurement,setting,value
C=C(c1ccc(C(=O)O)cc1)c1cc2c(cc1C)C(C)(C)CCC2(C)C [Bexarotene],Mouse weights during the study,[1],gained weight as expected
same,fold induction at 0.3 µM,SREBP [2],> 2
same,SREBP protein levels compared to DMSO control,SREBP [3],increased SREBP protein levels
